Data as given in patent US20260070929A1, “METHODS AND COMPOSITIONS FOR MODULATING KRAS(G12D)” (Ranok Therapeutics (Hangzhou) Co. LTD., priority 2022, published 2026).

Columns and labels:
KRAS(G12D)/SOS1 = target: T1, KRAS(G12D)/SOS1 (Homo sapiens, UniProt P01116, G12D); assay: KRAS(G12D)/SOS1 homogeneous time-resolved fluorescence (HTRF) assay; format: binding; details: absence of GTP; 4° C., 3 hr
T1 construct: purchased Cisbio 63ADK000CB17PEH
Method in brief: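 HTRF kit assay of compound-blocked KRAS(G12D)–SOS1 interaction, run without GTP. Compounds were tested as 3-fold dilutions from 20 µM to 1.02 nM and incubated with the reaction components for 3 hr at 4 °C, sealed. IC50 was taken as the concentration giving 50% of maximal inhibition.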

[1] = test system: ASPC1 pancreatic adenocarcinoma cells [homozygous G12D]; assay: Cancer cell line proliferation (CellTiter-Glo), ASPC1; format: cell-based; details: Homo sapiens, ASPC1, 72 h, 72 hr treatment, read-out: ASPC-1 CTG (EC50)
Procedure: The following cancer cell lines were employed: AGS gastric carcinoma [heterozygous G12D](ATCC, CRL-1739); A-427 lung carcinoma [heterozygous G12D](ATCC, HTB-53); ASPC1 pancreatic adenocarcinoma [homozygous G12D](ATCC, CRL-1682) and SW1990 pancreatic adenocarcinoma [homozygous G12D](ATCC CRL-2172). Cell lines were cultured essentially according to ATCC recommendations.
AGS, A-427, ASPC1, SW1990, and GP2D cells were plated in 96-well tissue culture plates at 4,000 cells/well and incubated at 37° C./5% CO2 for 72 hr in 100 μl of media. 3-fold serial dilutions of each test compound were prepared ranging from 20 μM to 1.02 nM. Each cell line was then treated with test compounds at various concentrations with a final concentration of 0.5% DMSO/well, and then incubated at 37° C./5% CO2 for 72 hr. 100 µl of CellTiter-Glo® Reagent (Promega Corporation, Madison, WI) was added to each well and processed according manufacturer's protocol. Results were analyzed and EC50 values were calculated in GraphPad 7 software.

[2] = test system: A-427 lung carcinoma cells [heterozygous G12D]; assay: Cancer cell line proliferation (CellTiter-Glo), A-427; format: cell-based; details: Homo sapiens, A-427 cells, 72 hr treatment, read-out: A427 CTG (EC50)
Method in brief: (§1)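 A 72 hr proliferation format is used: cells at 4,000/well, pre-grown 72 hr, then treated at 37° C./5% CO2 with 0.5% DMSO final. CellTiter-Glo measures viable cells, from which EC50 is calculated.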

[3] = test system: AGS gastric carcinoma cells [heterozygous G12D]; assay: Cancer cell line proliferation (CellTiter-Glo), AGS; format: cell-based; details: Homo sapiens, 72 hr treatment, read-out: AGS CTG (EC50)
Method in brief: as §1

T1 sequence (P01116 1-188 isoform P01116-2 G12D): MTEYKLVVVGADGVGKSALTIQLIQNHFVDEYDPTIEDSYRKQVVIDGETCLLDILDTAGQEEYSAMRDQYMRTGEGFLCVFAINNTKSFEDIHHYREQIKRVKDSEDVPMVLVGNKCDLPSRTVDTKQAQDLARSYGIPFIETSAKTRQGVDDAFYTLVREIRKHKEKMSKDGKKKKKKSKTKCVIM

Compound	IC50 (KRAS(G12D)/SOS1)	EC50 [1]	EC50 [2]	EC50 [3]
CC(C)c1cc(-c2nnc(O)n2-c2ccc(CN3CCN(C(=O)C4CCN([C@H]5C[C@@H](COc6nc(N7CC8CCC(C7)N8)c7cnc(-c8cccc9cccc(Cl)c89)cc7n6)N(C)C5)CC4)CC3)cc2)c(O)cc1O [Compound 4]	0.1 to 1 µM	> 1 µM	–	–
CC(C)c1cc(-c2nnc(O)n2-c2ccc(CN3CCN(C(=O)C4CCN([C@H]5C[C@@H](COc6nc(N7CC8CCC(C7)N8)c7cnc(-c8cccc9cccc(Cl)c89)c(F)c7n6)N(C)C5)CC4)CC3)cc2)c(O)cc1O [Compound 5]	< 0.1 µM	> 1 µM	> 1 µM	–
CCNC(=O)c1nnc(-c2cc(C(C)C)c(O)cc2O)n1-c1ccc(CN2CCN(C(=O)C3CCN([C@H]4C[C@@H](COc5nc(N6CC7CCC(C6)N7)c6cnc(-c7cccc8cccc(Cl)c78)c(F)c6n5)N(C)C4)CC3)CC2)cc1 [Compound 6]	0.1 to 1 µM	> 1 µM	0.1 to 1 µM	0.1 to 1 µM
CNC(=O)c1nnc(-c2cc(C(C)C)c(O)cc2O)n1-c1ccc(CN2CCN(C(=O)C3CCN([C@H]4C[C@@H](COc5nc(N6CC7CCC(C6)N7)c6cnc(-c7cccc8cccc(Cl)c78)c(F)c6n5)N(C)C4)CC3)CC2)cc1 [Compound 7]	0.1 to 1 µM	0.1 to 1 µM	0.1 to 1 µM	< 0.1 µM
CNC(=O)c1nnc(-c2cc(C)c(O)cc2O)n1-c1ccc(CN2CCN(C(=O)C3CCN([C@H]4C[C@@H](COc5nc(C6CC7CCC(C6)N7)c6cnc(-c7cccc8cccc(Cl)c78)c(F)c6n5)N(C)C4)CC3)CC2)cc1 (stereo partly drawn) [Compound 8]	< 0.1 µM	> 1 µM	> 1 µM	> 1 µM
CCc1cc(-c2nnc(C(=O)NC)n2-c2ccc(CN3CCN(C(=O)C4CCN([C@H]5C[C@@H](COc6nc(C7CC8CCC(C7)N8)c7cnc(-c8cccc9cccc(Cl)c89)c(F)c7n6)N(C)C5)CC4)CC3)cc2)c(O)cc1O (stereo partly drawn) [Compound 9]	0.1 to 1 µM	> 1 µM	> 1 µM	0.1 to 1 µM
C#Cc1cccc2cccc(-c3ncc4c(N5CC6CCC(C5)N6)nc(OCC5(CN6CCN(Cc7ccc(-n8c(O)nnc8-c8cc(C(C)C)c(O)cc8O)cc7)CC6)CC5)nc4c3F)c12 [Compound 10]	< 0.1 µM	> 1 µM	0.1 to 1 µM	0.1 to 1 µM
C#Cc1cccc2cccc(-c3ncc4c(N5CC6CCC(C5)N6)nc(OCC5(CN6CCN(Cc7ccc8c(c7)CN(C(=O)c7cc(C(C)C)c(O)cc7O)C8)CC6)CC5)nc4c3F)c12 [Compound 11]	< 0.1 µM	0.1 to 1 µM	0.1 to 1 µM	0.1 to 1 µM
C#Cc1cccc2cccc(-c3ncc4c(N5CC6CCC(C5)N6)nc(OCC5(CN6CCN(Cc7ccc(-n8c(C(=O)NCC)nnc8-c8cc(C(C)C)c(O)cc8O)cc7)CC6)CC5)nc4c3F)c12 [Compound 12]	< 0.1 µM	0.1 to 1 µM	< 0.1 µM	< 0.1 µM
C#Cc1cccc2cccc(-c3ncc4c(N5CC6CCC(C5)N6)nc(OCCN5CCN(Cc6ccc(-n7c(O)nnc7-c7cc(C(C)C)c(O)cc7O)cc6)CC5)nc4c3F)c12 [Compound 13]	0.1 to 1 µM	> 1 µM	0.1 to 1 µM	0.1 to 1 µM
C#Cc1cccc2cccc(-c3ncc4c(N5CC6CCC(C5)N6)nc(OCCN5CCN(Cc6ccc7c(c6)CN(C(=O)c6cc(C(C)C)c(O)cc6O)C7)CC5)nc4c3F)c12 [Compound 14]	0.1 to 1 µM	0.1 to 1 µM	0.1 to 1 µM	0.1 to 1 µM
C#Cc1cccc2cccc(-c3ncc4c(N5CC6CCC(C5)N6)nc(OC[C@@H]5CC[C@H](CN6CCN(Cc7ccc(-n8c(O)nnc8-c8cc(C(C)C)c(O)cc8O)cc7)CC6)N5C)nc4c3F)c12 [Compound 15]	< 0.1 µM	> 1 µM	0.1 to 1 µM	0.1 to 1 µM
C#Cc1cccc2cccc(-c3ncc4c(N5CC6CCC(C5)N6)nc(OC[C@@H]5CC[C@H](CN6CCN(Cc7ccc(-n8c(C(=O)NCC)nnc8-c8cc(C(C)C)c(O)cc8O)cc7)CC6)N5C)nc4c3F)c12 [Compound 16]	< 0.1 µM	0.1 to 1 µM	< 0.1 µM	< 0.1 µM
C#Cc1cccc2cccc(-c3ncc4c(N5CC6CCC(C5)N6)nc(OCCN5CCN(Cc6ccc(-n7c(C(=O)NCC)nnc7-c7cc(C(C)C)c(O)cc7O)cc6)CC5)nc4c3F)c12 [Compound 17]	< 0.1 µM	0.1 to 1 µM	< 0.1 µM	< 0.1 µM
C#Cc1cccc2cccc(-c3ncc4c(N5CC6CCC(C5)N6)nc(OCC5(CN6CCN(C(=O)C7CCN(Cc8ccc(-n9c(O)nnc9-c9cc(C(C)C)c(O)cc9O)cc8)CC7)CC6)CC5)nc4c3F)c12 [Compound 18]	< 0.1 µM	> 1 µM	0.1 to 1 µM	0.1 to 1 µM
C#Cc1cccc2cccc(-c3ncc4c(N5CC6CCC(C5)N6)nc(OCC5(CN6CCN(C(=O)C7CCN(Cc8ccc(-n9c(C(=O)NCC)nnc9-c9cc(C(C)C)c(O)cc9O)cc8)CC7)CC6)CC5)nc4c3F)c12 [Compound 19]	< 0.1 µM	0.1 to 1 µM	0.1 to 1 µM	< 0.1 µM
C#Cc1cccc2cccc(-c3ncc4c(N5CC6CCC(C5)N6)nc(OCCN5CCN(C(=O)C6CCN(Cc7ccc(-n8c(O)nnc8-c8cc(C(C)C)c(O)cc8O)cc7)CC6)CC5)nc4c3F)c12 [Compound 20]	0.1 to 1 µM	> 1 µM	0.1 to 1 µM	0.1 to 1 µM
C#Cc1cccc2cccc(-c3ncc4c(N5CC6CCC(C5)N6)nc(OCCN5CCN(C(=O)C6CCN(Cc7ccc(-n8c(C(=O)NCC)nnc8-c8cc(C(C)C)c(O)cc8O)cc7)CC6)CC5)nc4c3F)c12 [Compound 21]	0.1 to 1 µM	> 1 µM	0.1 to 1 µM	< 0.1 µM
Cc1cccc2cccc(-c3ncc4c(N5CC6CCC(C5)N6)nc(OC[C@@H]5C[C@H](N6CCN(Cc7ccc(-n8c(O)nnc8-c8cc(C(C)C)c(O)cc8O)cc7)CC6)CN5C)nc4c3F)c12 [Compound 22]	0.1 to 1 µM	> 1 µM	0.1 to 1 µM	0.1 to 1 µM
Cc1cccc2cccc(-c3ncc4c(N5CC6CCC(C5)N6)nc(OC[C@@H]5C[C@H](N6CCC(C(=O)N7CCN(Cc8ccc(-n9c(O)nnc9-c9cc(C(C)C)c(O)cc9O)cc8)CC7)CC6)CN5C)nc4c3F)c12 [Compound 23]	0.1 to 1 µM	> 1 µM	0.1 to 1 µM	0.1 to 1 µM
CCNC(=O)c1nnc(-c2cc(C(C)C)c(O)cc2O)n1-c1ccc(CN2CCC(C(=O)N3CCN([C@H]4C[C@@H](COc5nc(N6CC7CCC(C6)N7)c6cnc(-c7cccc8cccc(C)c78)c(F)c6n5)N(C)C4)CC3)CC2)cc1 [Compound 24]	0.1 to 1 µM	0.1 to 1 µM	< 0.1 µM	< 0.1 µM
C#Cc1cccc2cc(O)cc(-c3ncc4c(N5CC6CCC(C5)N6)nc(OCC5(CN6CCC(C(=O)N7CCN(Cc8ccc9c(c8)CN(C(=O)c8cc(C(C)C)c(O)cc8O)C9)CC7)CC6)CC5)nc4c3F)c12 [Example 3, 4-{5-[(4-{1-[(1-{[(4-{3,8-diazabicyclo[3.2.1]octan-3-yl}-7-(8-ethynyl-3-hydroxynaphthalen-1-yl)-8-fluoropyrido[4,3-d]pyrimidin-2-yl)oxy]methyl}cyclopropyl)methyl]piperidine-4-carbonyl}piperazin-1-yl)methyl]-1,3-dihydroisoindole-2-carbonyl}-6-isopropylbenzene-1,3-diol]	< 0.1 µM	–	0.1 to 1 µM	< 0.1 µM
